Among the data in US20260007684A1, “AMIDE DERIVATIVES FOR INHIBITING NLRP3 AND USES THEREOF” (Ventus Therapeutics U.S., Inc., priority 2023, published 2026) are IC50 values, retold here.

As a reminder, the IC50 is the concentration that gives 50% inhibition.

Chain of human NLRP3 (Q96P20 whole entry): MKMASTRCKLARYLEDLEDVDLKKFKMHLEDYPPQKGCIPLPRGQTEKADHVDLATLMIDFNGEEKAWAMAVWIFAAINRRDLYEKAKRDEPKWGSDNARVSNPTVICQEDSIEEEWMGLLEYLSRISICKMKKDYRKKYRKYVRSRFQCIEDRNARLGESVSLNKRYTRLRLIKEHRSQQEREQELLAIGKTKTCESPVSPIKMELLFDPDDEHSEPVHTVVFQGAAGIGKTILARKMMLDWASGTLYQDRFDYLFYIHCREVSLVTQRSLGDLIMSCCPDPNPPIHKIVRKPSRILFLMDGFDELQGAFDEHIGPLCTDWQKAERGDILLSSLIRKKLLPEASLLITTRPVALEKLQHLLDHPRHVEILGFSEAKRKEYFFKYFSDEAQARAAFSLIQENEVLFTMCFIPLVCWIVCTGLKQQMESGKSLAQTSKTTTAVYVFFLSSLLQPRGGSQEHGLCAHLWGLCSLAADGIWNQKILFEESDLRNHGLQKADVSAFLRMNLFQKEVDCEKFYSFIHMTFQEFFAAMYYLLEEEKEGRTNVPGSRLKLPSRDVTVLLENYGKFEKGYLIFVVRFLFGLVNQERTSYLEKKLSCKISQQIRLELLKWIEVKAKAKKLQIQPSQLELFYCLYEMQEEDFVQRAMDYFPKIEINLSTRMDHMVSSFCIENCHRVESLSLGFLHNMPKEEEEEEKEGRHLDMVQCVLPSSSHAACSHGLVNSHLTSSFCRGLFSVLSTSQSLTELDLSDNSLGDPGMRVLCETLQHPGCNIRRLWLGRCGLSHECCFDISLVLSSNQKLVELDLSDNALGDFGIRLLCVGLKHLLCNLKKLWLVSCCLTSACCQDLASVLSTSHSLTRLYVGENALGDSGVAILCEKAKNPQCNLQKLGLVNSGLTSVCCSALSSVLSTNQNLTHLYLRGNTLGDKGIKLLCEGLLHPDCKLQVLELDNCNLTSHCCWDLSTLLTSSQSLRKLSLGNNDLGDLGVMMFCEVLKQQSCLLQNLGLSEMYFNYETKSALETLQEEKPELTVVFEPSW

One assay concerns the target human NLRP3 (Homo sapiens (Human), UniProt Q96P20). Description: Scintillation Proximity (SPA) NLRP3 Assay: displacement of 3H-MCC950. Format: binding. The conditions noted are these: SPA IC50, displacement of 3H-MCC950. (SPA uses beads or plates that emit light when radiolabelled molecules are held near them.)
As for `O=C(NC1CCC[C@H]2CC[C@@H]1N2c1nnn[nH]1)C1(c2ccc(C3CC3)cc2O)CC1` (single isomer, unassigned) [93D*], the IC50 lay in the range of 1 to 10 µM.

Still in this assay, the particulars now being: displacement of 3H-MCC950; read-out: SPA IC50.
Take `C[C@H]1CC[C@@H](NC(=O)C2(c3ccc(C4CC4)cc3O)CC2)CN(c2nnn[nH]2)C1` (single isomer, unassigned) [91A*]: the IC50 was under 1 µM. Still for that read-out and setting: the figure for `C[C@H]1CC[C@H](NC(=O)C2(c3ccc(C4CC4)cc3O)CC2)CN(c2nnn[nH]2)C1` (single isomer, unassigned) [91B*] is under 1 µM. On to `C[C@@H]1CC[C@@H](NC(=O)C2(c3ccc(C4CC4)cc3O)CC2)CN(c2nnn[nH]2)C1` (single isomer, unassigned) [91C*], for which the 50% inhibitory concentration (IC50) fell in the range of 50 to 100 µM. In the case of `C[C@@H]1CC[C@H](NC(=O)C2(c3ccc(C4CC4)cc3O)CC2)CN(c2nnn[nH]2)C1` (single isomer, unassigned) [91D*], the IC50 lay within 1 to 10 µM. On the same count and under the same terms, the result for `C[C@@H]1CCN(c2nnn[nH]2)C[C@@H](NC(=O)C2(c3cnc(Cl)cc3O)CC2)C1` (single isomer, unassigned) [99B*] reads 1 to 10 µM; that for `C[C@H]1CCN(c2nnn[nH]2)C[C@H](NC(=O)C2(c3cnc(Cl)cc3O)CC2)C1` (single isomer, unassigned) [99C*], 50 to 100 µM. Same read-out and setting: the result for `C[C@H]1CCN(c2nnn[nH]2)C[C@@H](NC(=O)C2(c3cnc(Cl)cc3O)CC2)C1` (single isomer, unassigned) [99D*] reads 10 to 50 µM; that for `C[C@@H]1CCN(c2nnn[nH]2)C[C@@H](NC(=O)C2(c3ccc(Cl)nc3O)CC2)C1` (single isomer, unassigned) [100B*], 10 to 50 µM. As for `C[C@H]1CCN(c2nnn[nH]2)C[C@H](NC(=O)C2(c3ccc(Cl)nc3O)CC2)C1` (single isomer, unassigned) [100C*], the IC50 was over 100 µM. The same measure, in the same setting: the result for `C[C@H]1CCN(c2nnn[nH]2)C[C@@H](NC(=O)C2(c3ccc(Cl)nc3O)CC2)C1` (single isomer, unassigned) [100D*] reads over 100 µM. The same measure, in the same setting: the result for `COc1cc(F)c(C2(C(=O)N[C@H]3C[C@H](C)[C@H]4CC[C@@H]3N4c3nnn[nH]3)CC2)c(F)c1` (single isomer, unassigned) [102D*] reads 10 to 50 µM. Still for that read-out and setting: the result for `O=C(N[C@H]1C[C@@H](C(F)(F)F)[C@@H]2CC[C@H]1N2c1nnn[nH]1)C1(c2ccc(Cl)cc2)CC1` (single isomer, unassigned) [103B*] reads over 100 µM; that for `O=C(N[C@@H]1C[C@H](C(F)(F)F)[C@H]2CC[C@@H]1N2c1nnn[nH]1)C1(c2ccc(Cl)cc2)CC1` (single isomer, unassigned) [103C*], over 100 µM. For `O=C(N[C@H]1C[C@H](C(F)(F)F)[C@H]2CC[C@@H]1N2c1nnn[nH]1)C1(c2ccc(Cl)cc2)CC1` (single isomer, unassigned) [103D*], the IC50 lay in the range of 10 to 50 µM.

As for `O=C(NC1CC(C2CC2)CN(c2nnn[nH]2)C1)C1(c2ccc(Cl)cc2)CC1` (single isomer, unassigned) [Rac-13A*/D*, 1-(4-chlorophenyl)-N-(5-cyclopropyl-1-(1H-tetrazol-5-yl)piperidin-3-yl)cyclopropane-1-carboxamide], the IC50 lay in the range of 1 to 10 µM. The same measure, in the same setting: the figure for `O=C(NC1CC(C2CC2)CN(c2nnn[nH]2)C1)C1(c2ccc(Cl)cc2)CC1` (single isomer, unassigned) [Rac-13B*/C*, 1-(4-chlorophenyl)-N-(5-cyclopropyl-1-(1H-tetrazol-5-yl)piperidin-3-yl)cyclopropane-1-carboxamide] is 50 to 100 µM. On to `C[C@@H]1CCN(c2nnn[nH]2)CC(NC(=O)C2(c3ccc(OC(F)F)cc3)CC2)C1` (stereo in doubt) [58B*, 1-(4-(difluoromethoxy)phenyl)-N-((3S,5R)-5-methyl-1-(1H-tetrazol-5-yl)azepan-3-yl)cyclopropane-1-carboxamide], for which the half-maximal inhibitory concentration (IC50) lay in the range of 1 to 10 µM. Same read-out and setting: the result for `C[C@@H]1C[C@H](NC(=O)C2(c3ccc(OC(F)F)cc3F)CC2)[C@H]2CC[C@@H]1N2c1nnn[nH]1` (stereo in doubt) [101B*, 1-(4-(difluoromethoxy)-2-fluorophenyl)-N-(4-methyl-8-(1H-tetrazol-5-yl)-8-azabicyclo[3.2.1]octan-2-yl)cyclopropane-1-carboxamide] reads over 100 µM; that for `C[C@H]1C[C@@H](NC(=O)C2(c3ccc(OC(F)F)cc3F)CC2)[C@@H]2CC[C@H]1N2c1nnn[nH]1` (stereo in doubt) [101C*, 1-(4-(difluoromethoxy)-2-fluorophenyl)-N-(4-methyl-8-(1H-tetrazol-5-yl)-8-azabicyclo[3.2.1]octan-2-yl)cyclopropane-1-carboxamide], over 100 µM; that for `C[C@H]1C[C@H](NC(=O)C2(c3ccc(OC(F)F)cc3F)CC2)[C@@H]2CC[C@H]1N2c1nnn[nH]1` (stereo in doubt) [101D*, 1-(4-(difluoromethoxy)-2-fluorophenyl)-N-(4-methyl-8-(1H-tetrazol-5-yl)-8-azabicyclo[3.2.1]octan-2-yl)cyclopropane-1-carboxamide], 10 to 50 µM.

In the case of `C[C@H]1C[C@@H](NC(=O)C2(c3ccc(OC(F)F)cc3O)CC2)[C@@H]2CC[C@H]1N2c1nnn[nH]1` [43C*, N-((1S,2R,4S,5R)-4-methy1-8-(1H-tetrazol-5-yl)-8-azabicyclo[3.2.1]octan-2-yl)-1-(4-(difluoromethoxy)-2-hydroxyphenyl)cyclopropane-1-carboxamide], the 50% inhibitory concentration (IC50) is over 100 µM. For `C[C@H]1C[C@H](NC(=O)C2(c3ccc(OC(F)F)cc3O)CC2)[C@@H]2CC[C@H]1N2c1nnn[nH]1` [43D*, N-((1S,2S,4S,5R)-4-methy1-8-(1H-tetrazol-5-yl)-8-azabicyclo[3.2.1]octan-2-yl)-1-(4-(difluoromethoxy)-2-hydroxyphenyl)cyclopropane-1-carboxamide], the IC50 lay in the range of 10 to 50 µM.

With `O=C(N[C@H]1CC[C@@H]2CC[C@H]1N2c1nnn[nH]1)C1(c2ccc(Cl)cc2O)CC1` [75B*, N-((1R,2S,5R)-8-(1H-tetrazol-5-yl)-8-azabicyclo[3.2.1]octan-2-yl)-1-(4-chloro-2-hydroxyphenyl)cyclopropane-1-carboxamide], the half-inhibitory concentration (IC50) was 1 to 10 µM. Still for that read-out and setting: the result for `O=C(N[C@H]1CC[C@@H]2CC[C@H]1N2c1nnn[nH]1)C1(c2ccc(Cl)c(F)c2O)CC1` [76B*, N-((1R,2S,5R)-8-(1H-tetrazol-5-yl)-8-azabicyclo[3.2.1]octan-2-yl)-1-(4-chloro-3-fluoro-2-hydroxyphenyl)cyclopropane-1-carboxamide] reads 10 to 50 µM; that for `O=C(N[C@H]1CC[C@@H]2CC[C@H]1N2c1nnn[nH]1)C1(c2ccc(OC(F)F)cc2O)CC1` [77B*, N-((1R,2S,5R)-8-(1H-tetrazol-5-yl)-8-azabicyclo[3.2.1]octan-2-yl)-1-(4-(difluoromethoxy)-2-hydroxyphenyl)cyclopropane-1-carboxamide], 10 to 50 µM.

For the molecule `O=C(N[C@H]1CC[C@@H]2CC[C@H]1N2c1nnn[nH]1)C1(c2ccc(OC(F)(F)F)cc2O)CC1` [78B*, N-((1R,2S,5R)-8-(1H-tetrazol-5-yl)-8-azabicyclo[3.2.1]octan-2-yl)-1-(2-hydroxy-4-(trifluoromethoxy)phenyl)cyclopropane-1-carboxamide], the IC50 was 1 to 10 µM.

Regarding `C[C@@H]1C[C@H](NC(=O)C2(c3ccc(C(F)(F)F)cc3)CC2)[C@H]2CC[C@@H]1N2c1nnn[nH]1` [79B*, N-((1R,2S,4R,5S)-4-methy1-8-(1H-tetrazol-5-yl)-8-azabicyclo[3.2.1]octan-2-yl)-1-(4-(trifluoromethyl)phenyl)cyclopropane-1-carboxamide], the half-maximal inhibitory concentration (IC50) fell in the range of 10 to 50 µM. Consider `C[C@H]1C[C@@H](NC(=O)C2(c3ccc(C(F)(F)F)cc3)CC2)[C@@H]2CC[C@H]1N2c1nnn[nH]1` [79C*, N-((1S,2R,4S,5R)-4-methy1-8-(1H-tetrazol-5-yl)-8-azabicyclo[3.2.1]octan-2-yl)-1-(4-(trifluoromethyl)phenyl)cyclopropane-1-carboxamide], for which the 50% inhibitory concentration (IC50) lay within 10 to 50 µM. Same read-out and setting: the figure for `C[C@H]1C[C@H](NC(=O)C2(c3ccc(C(F)(F)F)cc3)CC2)[C@@H]2CC[C@H]1N2c1nnn[nH]1` [79D*, N-((1S,2S,4S,5R)-4-methyl-8-(1H-tetrazol-5-yl)-8-azabicyclo[3.2.1]octan-2-yl)-1-(4-(trifluoromethyl)phenyl)cyclopropane-1-carboxamide] is 10 to 50 µM; for `C[C@@H]1C[C@H](NC(=O)C2(c3ccc(Cl)cc3)CC2)[C@H]2CC[C@@H]1N2c1nnn[nH]1` [80B*, 1-(4-chlorophenyl)-N-((1R,2S,4R,5S)-4-methyl-8-(1H-tetrazol-5-yl)-8-azabicyclo[3.2.1]octan-2-yl)cyclopropane-1-carboxamide] it is 10 to 50 µM. Turning to `C[C@H]1C[C@@H](NC(=O)C2(c3ccc(Cl)cc3)CC2)[C@@H]2CC[C@H]1N2c1nnn[nH]1` [80C*, 1-(4-chlorophenyl)-N-((1S,2R,4S,5R)-4-methyl-8-(1H-tetrazol-5-yl)-8-azabicyclo[3.2.1]octan-2-yl)cyclopropane-1-carboxamide], the IC50 is over 100 µM. On the same count and under the same terms, the result for `C[C@H]1C[C@H](NC(=O)C2(c3ccc(Cl)cc3)CC2)[C@@H]2CC[C@H]1N2c1nnn[nH]1` [80D*, 1-(4-chlorophenyl)-N-((1S,2S,4S,5R)-4-methyl-8-(1H-tetrazol-5-yl)-8-azabicyclo[3.2.1]octan-2-yl)cyclopropane-1-carboxamide] reads 50 to 100 µM; that for `C[C@@H]1C[C@H](NC(=O)C2(c3ccc(C4CC4)cc3)CC2)[C@H]2CC[C@@H]1N2c1nnn[nH]1` [81B*, 1-(4-cyclopropylphenyl)-N-((1R,2S,4R,5S)-4-methyl-8-(1H-tetrazol-5-yl)-8-azabicyclo[3.2.1]octan-2-yl)cyclopropane-1-carboxamide], 50 to 100 µM; that for `C[C@H]1C[C@@H](NC(=O)C2(c3ccc(C4CC4)cc3)CC2)[C@@H]2CC[C@H]1N2c1nnn[nH]1` [81C*, 1-(4-cyclopropylphenyl)-N-((1S,2R,4S,5R)-4-methyl-8-(1H-tetrazol-5-yl)-8-azabicyclo[3.2.1]octan-2-yl)cyclopropane-1-carboxamide], 50 to 100 µM.

Regarding `C[C@H]1C[C@H](NC(=O)C2(c3ccc(C4CC4)cc3)CC2)[C@@H]2CC[C@H]1N2c1nnn[nH]1` [81D*], the IC50 fell in the range of 10 to 50 µM.
